Test results as given in paper PMC3171608 (Bioorganic & medicinal chemistry, 2011).

Columns and labels:
HeLa cells = experiment: Phenotypic assay in cultured HeLa cells; assay type: cell-based, human; details: 1 μM compound
[1] = biological target: mammalian centromere-associated kinesin (MCAK) (Homo sapiens, UniProt Q99661); experiment: Kinesin ATPase selectivity panel, MCAK; assay type: biochemical; details: panel of mitotic kinesins; data not shown
[2] = biological target: T1, centromeric protein E (CENP-E) (Homo sapiens, UniProt Q02224); experiment: Kinesin ATPase selectivity panel, CENP-E; assay type: biochemical; details: panel of mitotic kinesins; data not shown
T1 sequence (Q02224 6-329 limits assumed): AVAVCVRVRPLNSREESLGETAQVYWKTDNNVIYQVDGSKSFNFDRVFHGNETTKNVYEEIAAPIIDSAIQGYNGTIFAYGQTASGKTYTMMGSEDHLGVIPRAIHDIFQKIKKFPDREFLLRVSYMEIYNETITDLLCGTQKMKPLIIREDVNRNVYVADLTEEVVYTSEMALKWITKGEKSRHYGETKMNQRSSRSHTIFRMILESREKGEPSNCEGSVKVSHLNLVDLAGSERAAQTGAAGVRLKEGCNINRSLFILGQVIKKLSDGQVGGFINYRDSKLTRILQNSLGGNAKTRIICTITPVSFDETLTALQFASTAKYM

[3] = system: other kinesin family members; details: cited from earlier work
chromokinesin = details: panel of mitotic kinesins; data not shown
NCI60 tumor panel = NCI60 tumor panel growth inhibition; details: for GI50: read-out: Average GI50 in leukemia and colon tumor cell lines
M14 = experiment: NCI60 growth inhibition, M14; assay type: cell-based; details: melanoma M14, GI50

Chain of mammalian centromere-associated kinesin (MCAK) (Q99661 258-588 limits assumed): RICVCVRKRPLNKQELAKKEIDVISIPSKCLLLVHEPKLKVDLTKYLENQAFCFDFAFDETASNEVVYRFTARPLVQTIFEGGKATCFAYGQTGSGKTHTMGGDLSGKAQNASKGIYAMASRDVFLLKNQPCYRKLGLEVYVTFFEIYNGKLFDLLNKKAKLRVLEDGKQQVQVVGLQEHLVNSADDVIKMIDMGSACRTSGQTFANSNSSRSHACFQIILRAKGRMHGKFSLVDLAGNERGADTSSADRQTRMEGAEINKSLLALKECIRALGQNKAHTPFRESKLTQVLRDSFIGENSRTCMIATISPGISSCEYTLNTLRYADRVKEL

Compound	Interphase microtubule morphology (HeLa cells)	Inhibitory activity against MCAK [1]	Inhibitory activity against CENP-E [2]	Activity against other kinesin family members [3]	Inhibitory activity against chromokinesin (chromokinesin)	GI50 (NCI60 tumor panel) [nM]	Fold increase in activity over monastrol (M14) [fold]	Average fold increase in potency over 1 (NCI60 tumor panel; NCI60 panel GI50) [fold]	Average fold increase in potency over Monastrol (NCI60 tumor panel; NCI60 panel GI50) [fold]
N[C@H](CO)CSC(c1ccccc1)(c1ccccc1)c1ccccc1 [Compound 4, (R)-2-amino-3-(tritylthio)propan-1-ol]	normal	no measurable inhibition detected	no measurable inhibition detected						
N[C@@H](CSC(c1ccccc1)(c1ccccc1)c1ccccc1)C(=O)O [Compound 1, S-trityl-L-cysteine]				no activity					
COc1ccc(C(SC[C@H](N)CO)(c2ccccc2)c2ccccc2)cc1 [Compound 5, (R)-2-amino-3-((4-methoxyphenyl)diphenylmethylthio)propan-1-ol]	normal	no measurable inhibition detected	no measurable inhibition detected		no measurable inhibition detected	≤ 230			
COc1ccc(C(SCCN)(c2ccccc2)c2ccccc2)cc1 [Compound 7]	normal					≤ 230	1200	~35	~143
